Assay results reported in patent publication US20250186436A1 (4E Therapeutics, Inc., priority 2021, published 2025).
Several values for one entry are separate records, joined by “and”; a condition that tells them apart may be missing. Equal entries are not always repeated. Where two headings read alike, the source gives them in different places.

Legend:
[1] = PK study in male Sprague-Dawley rats dosed once per day for five days, PO 1 mg/kg, 0.5% HPMC (Example 6); format: in vivo; conditions: male, Sprague-Dawley, rat, in vivo, po, 1 mg/kg, 0.5% HPMC suspension
Protocol: Example 6: PK study of 4ET-03-053 in male Sprague-Dawley rats dosed once per day for five days (P0; 1 mg/kg; 0.500HPMC aqueous suspension)
Table 18 provides plasma and brain concentrations of 4ET-03-0053 at 24 hr after the last dose of five daily P0 doses.

[2] = test system: eIF4E phosphorylation in mouse tissues; assay: In vivo biochemical assay (Western blot) of eIF4E phosphorylation in mouse tissues; conditions: mice, PO 10 mg/kg
Protocol: […] Tissues were acutely dissected and immediately frozen. Frozen samples were later bead homogenized with protease and phosphatase inhibitor cocktails present in the homogenization buffer and then protein was quantified by Bradford assay. 20 μg of protein was run per lane on standard SDS-PAGE. Blots were probed with antibodies against p-eIF4E and total-eIF4E and imaged on a BioRad imaging system. […] However, inhibition of phosphorylation of eIF4E in the brain was not observed, as determined by Western blot analysis of brain tissue from the cortex.

[3] = Plasma and brain concentrations, brain to plasma ratio 24 hr after last of five 10 mg/kg PO doses (Example 7); format: in vivo; conditions: rats, 24 hr after the last of five 10 mg/kg PO doses; for concentration at 24 h: oral, 10 mg/kg
Description: Table 21 provides plasma and brain concentrations at 24 hr after the last dose of five daily P0 doses of 4ET-03-053.

[4] = Plasma and brain concentrations, brain to plasma ratio in SD rats 2 hr after single 10 mg/kg PO (Example 4); format: in vivo; conditions: 2 hr post single PO dose 10 mg/kg; for concentration at 2 hr: Sprague-Dawley, po
Protocol: A brain to plasma ratio of 0.096 (BP=0.096) in SD rats is observed at 2 hr following a single 10 mg/kg dose of 4ET-03-053.

[5] = Sprague-Dawley rats, day 5 of daily PO 1 mg/kg, mean (n = 3)
[6] = male Sprague-Dawley rats, single (first) PO 1 mg/kg dose, individual animals
[7] = male Sprague-Dawley rats, single (first) PO 1 mg/kg dose, mean (n = 3)
[8] = individual animals (n = 3), 10 mg/kg

Compound: Cc1cc(Nc2cc(N)ncn2)c(=O)n2c1C(=O)NC21CCC2(CC2)CC1 [4ET-03-053, 6″-((6-Aminopyrimidin-4-yl)amino)-8″-methyl-2″H-dispiro[cyclopropane-1,1′-cyclohexane-4′,3″-imidazo[1,5-a]pyridine]-1″,5″-dione]
- AUC(0-inf) ([1]; Sprague-Dawley rats, day 5 of daily PO 1 mg/kg, individual animals, read-out: AUCinf): 49800 ng·h/mL
- concentration at 24 h ([1]; Sprague-Dawley rats, day 5 of daily PO 1 mg/kg, individual animals, read-out: Clast): 226 ng/mL
- Cmax ([1]; Sprague-Dawley rats, day 5 of daily PO 1 mg/kg, individual animals, read-out: Cmax): 4150 ng/mL
- half-life ([1]; Sprague-Dawley rats, day 5 of daily PO 1 mg/kg, individual animals, read-out: t1/2 (converted)): 5.91 h
- AUC(0-t) [1, 5]: 40800 ng·h/mL
- MRT inf [1, 5]: 7.8 h
- Tmax [1, 5]: 1.33 h
- AUC(0-inf) ([1]; Sprague-Dawley rats, day 5 of daily PO 1 mg/kg, mean (n = 3), read-out: AUCinf): 43200 ng·h/mL
- concentration at 24 h ([1]; Sprague-Dawley rats, day 5 of daily PO 1 mg/kg, mean (n = 3), read-out: Clast): 278 ng/mL
- Cmax ([1]; Sprague-Dawley rats, day 5 of daily PO 1 mg/kg, mean (n = 3), read-out: Cmax): 4400 ng/mL
- half-life ([1]; Sprague-Dawley rats, day 5 of daily PO 1 mg/kg, mean (n = 3), read-out: t1/2 (converted)): 6.01 h
- AUC(0-t) [1, 6]: 35100 ng·h/mL
- MRT inf [1, 6]: 8.25 h
- Tmax [1, 6]: 2 h
- AUC(0-inf) ([1]; male Sprague-Dawley rats, single (first) PO 1 mg/kg dose, individual animals, read-out: AUCinf): 37200 ng·h/mL
- concentration at 24 hr ([1]; male Sprague-Dawley rats, single (first) PO 1 mg/kg dose, individual animals, read-out: Clast): 179 ng/mL
- Cmax ([1]; male Sprague-Dawley rats, single (first) PO 1 mg/kg dose, individual animals, read-out: Cmax): 2400 ng/mL
- half-life ([1]; male Sprague-Dawley rats, single (first) PO 1 mg/kg dose, individual animals, read-out: t1/2 (converted)): 5.51 h
- AUC(0-t) [1, 7]: 31800 ng·h/mL
- MRT inf [1, 7]: 8.13 h
- Tmax [1, 7]: 2 h
- AUC(0-inf) ([1]; male Sprague-Dawley rats, single (first) PO 1 mg/kg dose, mean (n = 3), read-out: AUCinf): 33600 ng·h/mL
- concentration at 24 hr ([1]; male Sprague-Dawley rats, single (first) PO 1 mg/kg dose, mean (n = 3), read-out: Clast): 213 ng/mL
- Cmax ([1]; male Sprague-Dawley rats, single (first) PO 1 mg/kg dose, mean (n = 3), read-out: Cmax): 2580 ng/mL
- half-life ([1]; male Sprague-Dawley rats, single (first) PO 1 mg/kg dose, mean (n = 3), read-out: t1/2 (converted)): 5.73 h
- bioavailability ([1]; male Sprague-Dawley rats, single PO 1 mg/kg): 65.4%
- concentration at 24 h ([1]; male Sprague-Dawley rats, single PO 1 mg/kg, at 24 hr, read-out: last measurable concentration): 213 ng/mL
- Cmax ([1]; male Sprague-Dawley rats, single PO 1 mg/kg, read-out: peak plasma concentration (Cmax)): 2580 ng/mL
- half-life ([1]; male Sprague-Dawley rats, single PO 1 mg/kg, read-out: terminal half-life (t1/2) (converted)): 5.73 h
- AUC(0-inf) ([1]; male Sprague-Dawley rats, single PO 1 mg/kg, read-out: total systemic exposure (AUCinf)): 33600 ng·h/mL
- inhibition of phosphorylation of eIF4E in the brain (cortex) [2]: not observed
- inhibition of eIF4E phosphorylation in DRGs ([2]; 2 hours post dose): significant inhibition
- inhibition of eIF4E phosphorylation in sciatic nerve ([2]; 2 hours post dose): significant inhibition
- inhibition of eIF4E phosphorylation in spleen ([2]; 2 hours post dose): significant inhibition
- concentration at 24 h ([3]; male, Sprague-Dawley, rat, brain homogenate, brain homogenate, individual animals (n = 3), read-out: Tissue Homogenate Conc.): 75.6 ng/mL
- concentration at 24 h ([3]; male, Sprague-Dawley, rat, brain homogenate, brain homogenate, mean, read-out: Tissue Homogenate Conc., Mean): 85.6 ng/mL
- concentration at 24 h ([3]; male, Sprague-Dawley, rat, brain, brain, read-out: Mean Tissue): 342 ng/g
- concentration at 24 h ([3]; male, Sprague-Dawley, rat, plasma, plasma, individual animals (n = 3), read-out: Plasma Conc.): 2390 ng/mL
- concentration at 24 h ([3]; male, Sprague-Dawley, rat, plasma, plasma, mean, read-out: Plasma Conc., Mean): 2670 ng/mL
- Kp at 24 h ([3]; male, Sprague-Dawley, rat, brain to plasma, read-out: Mean Tissue/Plasma Conc. Ratio): 0.128
- Tissue Homogenate Conc. ([3]; brain homogenate, individual animals (n = 3)): 88.2 ng/mL and 93.0 ng/mL
- Plasma Conc. ([3]; plasma, individual animals (n = 3)): 2740 ng/mL and 2880 ng/mL
- Brain Tissue Homogenate Conc. [4, 8]: 406 ng/mL and 323 ng/mL
- Plasma Conc. [4, 8]: 16900 ng/mL and 14400 ng/mL
- Kp at 2 h ([4]; Sprague Dawley, rat, brain/plasma, read-out: Mean Tissue/Plasma Conc. Ratio (brain to plasma ratio)): 0.096
- concentration at 2 hr ([4]; rat, brain tissue homogenate, 10 mg/kg, individual animals (n = 3), read-out: Brain Tissue Homogenate Conc.): 319 ng/mL
- concentration at 2 hr ([4]; rat, brain tissue homogenate, 10 mg/kg, mean, read-out: Brain Tissue Homogenate Conc., Mean): 349 ng/mL
- concentration at 2 hr ([4]; rat, brain, 10 mg/kg, read-out: Brain Mean Tissue): 1400 ng/g
- concentration at 2 hr ([4]; rat, plasma, 10 mg/kg, individual animals (n = 3), read-out: Plasma Conc.): 12200 ng/mL
- concentration at 2 hr ([4]; rat, plasma, 10 mg/kg, mean, read-out: Plasma Conc., Mean): 14500 ng/mL
